In US9981920B2, “Inhibitors of histone deacetylase” (Rodin Therapeutics, Inc., priority 2014, dated 2018):

Molecular target: T1, HDAC2 (Homo sapiens, UniProt Q92769)
T1 construct: purchased Proteros
Experiment: Reporter displacement assay (HDAC2 Kd)
Type: binding
Conditions: HDAC2 with C-terminal HIS-Tag 20 nM, 180 nM reporter probe, read after 4 h; Kd by Cheng Prusoff from probe displacement
Procedure: HDAC2 containing a C-terminal HIS-Tag (Proteros) and fluorescently-labeled anti-HIS-antibody are diluted in one vial in assay buffer 50 mM Tris, pH 8.0, 1 mM DTT, 150 mM NaCl, and 0.01% Tween20. Components are pre-incubated for 30 min, then a small volume of reporter probe (Proteros) is added from a highly concentrated stock and incubation is continued for another 30 min. Final concentrations after adding the reporter probe amount to 20 nM HDAC2, 4 nM antibody, and 180 nM probe.
Ten μl/well of pre-formed complex are transferred into 384 well assay plates (Corning). Compounds to be profiled are serially diluted from 1×10^1-5.7×10^−5 mM in DMSO and 60 nl are added to assay plates by pintool transfer (CybiWell, Cybio). Fluorescence intensity signal is read after 4 h in a Pherastar FS (BMG Labtech) at 337/665 nm.
For Kd determination, percent probe displacement values are calculated for each compound concentration and plotted against the compound concentration. IC50-like values (corresponding to 50% probe displacement) are calculated using standard fitting algorithms. Since the reporter probe is used at a concentration reflecting its own Kd value, compound Kd values can be calculated according to the Cheng Prusoff equation.
In the table, “A” indicates a Kd value of less than 0.1 μM; “B” a Kd value of between 0.1 μM and 1.0 μM; “C” a Kd value of greater than 1.0 μM and less than or equal to 10.0 μM; and “D” a Kd value of greater than 10.0 μM.

T1 sequence (Q92769 whole entry): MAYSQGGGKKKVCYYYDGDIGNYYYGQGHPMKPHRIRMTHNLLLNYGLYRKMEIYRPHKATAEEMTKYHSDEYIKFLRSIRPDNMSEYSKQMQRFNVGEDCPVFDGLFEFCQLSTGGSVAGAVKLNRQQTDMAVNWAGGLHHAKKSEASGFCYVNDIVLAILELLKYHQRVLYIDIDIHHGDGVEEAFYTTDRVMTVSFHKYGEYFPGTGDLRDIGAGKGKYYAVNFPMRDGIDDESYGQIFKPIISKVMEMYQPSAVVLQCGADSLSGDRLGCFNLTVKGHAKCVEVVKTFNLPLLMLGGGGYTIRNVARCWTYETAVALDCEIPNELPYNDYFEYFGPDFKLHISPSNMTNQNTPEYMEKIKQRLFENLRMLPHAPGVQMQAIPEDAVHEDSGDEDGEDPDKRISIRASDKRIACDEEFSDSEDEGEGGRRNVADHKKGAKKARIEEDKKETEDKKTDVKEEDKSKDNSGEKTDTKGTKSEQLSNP

**Q.** With `O=C(CSc1nc(O)cc(=O)[nH]1)c1ccc(NC(=O)c2ccccc2)cc1` [Compound 130] as the molecule, how does the Kd read?
**A.** 100 to 1000 nM

**Q.** How did the Kd turn out when `Cc1ccc(C(=O)CSc2nc(O)c3ccccc3n2)cc1` [Compound 100] was run?
**A.** 1000 to 10000 nM

**Q.** For `CC(=O)Nc1ccc(C(=O)CSc2nc(O)cc(=O)n2C)cc1` [Compound 116], which Kd is on record?
**A.** < 100 nM

**Q.** With `CC(C)(C)OC(=O)Nc1ccc(C(=O)CSc2nc(O)c(-c3ccccc3)c(=O)[nH]2)cc1` [Compound 126] as the molecule, how does the Kd read?
**A.** 100 to 1000 nM

**Q.** For `COc1ccc(C(=O)CSc2nc(O)c(-c3ccccc3)c(=O)[nH]2)cc1` [Compound 121], which Kd is on record?
**A.** 100 to 1000 nM

**Q.** `CC(=O)Nc1ccc(C(=O)CSc2nc(O)cc(=O)[nH]2)cc1` [Compound 106] was tested. Which Kd did it give?
**A.** < 100 nM

**Q.** With `CC(=O)Nc1ccc(C(=O)CSc2nc3ccccc3c(=O)[nH]2)cc1` [Compound 124] as the molecule, how does the Kd read?
**A.** 100 to 1000 nM

**Q.** `CC(=O)Nc1ccc(C(=O)CSc2nc(O)cc(=O)n2-c2ccccc2)cc1` [Compound 132] was tested. Which Kd did it give?
**A.** 100 to 1000 nM

**Q.** For `Cc1ccc(C(=O)COc2nc(C)cc(=O)[nH]2)cc1` [Compound 109], which Kd is on record?
**A.** > 10000 nM

**Q.** With `Cc1ccc(C(=O)CSc2nc(C)cc(=O)[nH]2)cc1` [Compound 104] as the molecule, how does the Kd read?
**A.** 100 to 1000 nM

**Q.** `CC(=O)Nc1ccc(/C(CSc2nc(O)cc(=O)[nH]2)=N\O)cc1` [Compound 114] was tested. Which Kd did it give?
**A.** 1000 to 10000 nM

**Q.** For `Nc1ccc(C(=O)CSc2nc(O)cc(=O)[nH]2)cc1` [Compound 127], which Kd is on record?
**A.** 100 to 1000 nM

**Q.** `CC(=O)Nc1ccc(C(=O)CSc2nc(O)cc(=O)n2C2CCCC2)cc1` [Compound 131] was tested. Which Kd did it give?
**A.** < 100 nM

**Q.** `CC(=O)Nc1ccc(C(=O)CSc2nc(O)cc(=O)n2C2CC2)cc1` [Compound 136] was tested. Which Kd did it give?
**A.** 100 to 1000 nM

**Q.** With `Cc1ccc(C(=O)CSc2nc(O)cc(=O)n2C)cc1` [Compound 112] as the molecule, how does the Kd read?
**A.** 100 to 1000 nM

**Q.** `CCc1ccc(C(=O)CSc2nc(C)cc(=O)[nH]2)cc1` [Compound 105] was tested. Which Kd did it give?
**A.** 1000 to 10000 nM

**Q.** For `CCn1c(SCC(=O)c2ccc(C)cc2)nc(O)cc1=O` [Compound 115], which Kd is on record?
**A.** 100 to 1000 nM

**Q.** `CCc1c(O)nc(SCC(=O)c2ccc(OC)cc2)[nH]c1=O` [Compound 103] was tested. Which Kd did it give?
**A.** < 100 nM

**Q.** `Cc1ccc(C(=O)CSc2nc(O)c(-c3ccccc3)c(=O)[nH]2)cc1` [Compound 110] was tested. Which Kd did it give?
**A.** < 100 nM

**Q.** For `O=C(CSc1nc(O)c(Cc2ccccc2)c(=O)[nH]1)c1ccccc1` [Compound 111], which Kd is on record?
**A.** 100 to 1000 nM

**Q.** How did the Kd turn out when `Cc1ccc(C(=O)CSc2nc(O)cc(=O)[nH]2)cc1` [Compound 107] was run?
**A.** < 100 nM

**Q.** With `CC(=O)Nc1ccc(C(=O)CSc2nc(O)cc(=O)n2C(C)C)cc1` [Compound 118] as the molecule, how does the Kd read?
**A.** < 100 nM

**Q.** With `O=C(CSc1nc(O)c(-c2ccccc2)c(=O)[nH]1)c1ccc(NC(=O)c2ccccc2)cc1` [Compound 125] as the molecule, how does the Kd read?
**A.** < 100 nM

**Q.** Which Kd does the source give for `O=C(CSc1nc(O)cc(=O)[nH]1)c1ccc(NC(=O)C(F)(F)F)cc1` [Compound 128] here?
**A.** < 100 nM

**Q.** For `C=CCn1c(SCC(=O)c2ccc(C)cc2)nc(O)cc1=O` [Compound 101], which Kd is on record?
**A.** < 100 nM

**Q.** For `O=C(CSc1nc(O)cc(=O)[nH]1)c1ccc2[nH]cnc2c1` [Compound 138], which Kd is on record?
**A.** 100 to 1000 nM

**Q.** With `CC(C)(C)OC(=O)Nc1ccc(C(=O)CSc2nc(O)cc(=O)[nH]2)cc1` [Compound 135] as the molecule, how does the Kd read?
**A.** 100 to 1000 nM

**Q.** `Cc1ccc(C(=O)CSc2nc(=O)c3ccccc3n2C)cc1` [Compound 145] was tested. Which Kd did it give?
**A.** 100 to 1000 nM

**Q.** With `C=CCn1c(SCC(O)c2ccc(C)cc2)nc(O)cc1=O` (stereo not shown) [Compound 108] as the molecule, how does the Kd read?
**A.** 100 to 1000 nM

**Q.** `COc1ccc(C(=O)CSc2nc(O)cc(=O)[nH]2)cc1` [Compound 120] was tested. Which Kd did it give?
**A.** 100 to 1000 nM

**Q.** How did the Kd turn out when `O=C(CSc1nc(O)cc(=O)[nH]1)c1ccc(N2CCCC2=O)cc1` [Compound 137] was run?
**A.** < 100 nM

**Q.** Which Kd does the source give for `Nc1ccc(C(=O)CSc2nc(O)c(-c3ccccc3)c(=O)[nH]2)cc1` [Compound 122] here?
**A.** 100 to 1000 nM

**Q.** For `CC(=O)N(C)c1ccc(C(=O)CSc2nc(O)cc(=O)[nH]2)cc1` [Compound 133], which Kd is on record?
**A.** < 100 nM

**Q.** `Cn1c(SCC(=O)c2ccc(Cl)cc2)nc(O)cc1=O` [Compound 143] was tested. Which Kd did it give?
**A.** 100 to 1000 nM

**Q.** For `Cc1ccc(C(=O)CSc2nc(O)cc(=O)n2C(C)C)cc1` [Compound 113], which Kd is on record?
**A.** 100 to 1000 nM

**Q.** With `Cn1c(SCC(=O)c2cccc(Cl)c2)nc(O)cc1=O` [Compound 144] as the molecule, how does the Kd read?
**A.** 100 to 1000 nM

**Q.** Which Kd does the source give for `Cn1c(SCC(=O)c2cccc(F)c2)nc(O)cc1=O` [Compound 142] here?
**A.** < 100 nM

**Q.** `CCn1c(SCC(=O)c2ccccc2)nc(O)cc1=O` [Compound 102] was tested. Which Kd did it give?
**A.** < 100 nM

**Q.** How did the Kd turn out when `CC(=O)Nc1ccc(C(=O)CSc2nc(O)c(C3CCCC3)c(=O)[nH]2)cc1` [Compound 123] was run?
**A.** < 100 nM

**Q.** How did the Kd turn out when `CCn1c(SCC(=O)c2ccc(NC(C)=O)cc2)nc(O)cc1=O` [Compound 117] was run?
**A.** < 100 nM

**Q.** How did the Kd turn out when `CN(C)c1ccc(C(=O)CSc2nc(O)cc(=O)[nH]2)cc1` [Compound 134] was run?
**A.** 100 to 1000 nM

**Q.** Which Kd does the source give for `CC(C)C(=O)Nc1ccc(C(=O)CSc2nc(O)cc(=O)[nH]2)cc1` [Compound 129] here?
**A.** < 100 nM

**Q.** `Cc1cccc(C(=O)CSc2nc(O)cc(=O)n2C)c1` [Compound 139] was tested. Which Kd did it give?
**A.** 100 to 1000 nM

**Q.** For `Cn1c(SCC(=O)c2ccc(F)cc2)nc(O)cc1=O` [Compound 141], which Kd is on record?
**A.** 100 to 1000 nM

**Q.** `CC(=O)Nc1ccc(C(=O)CSc2nc(O)c(-c3ccccc3)c(=O)[nH]2)cc1` [Compound 119] was tested. Which Kd did it give?
**A.** < 100 nM

**Q.** Which Kd does the source give for `Cn1c(SCC(=O)c2ccccc2)nc(O)c(-c2ccccc2)c1=O` [Compound 140] here?
**A.** 100 to 1000 nM
